Earlier results as cited in EP0306335A1, “Analysis of ions present at low concentrations in solutions containing other ions” (Bradshaw, Jerald S., priority 1987, dated 1989).

Conditions: ligand as solute in solution

## O=C(O)CN(CCN(CC(=O)O)CC(=O)O)CC(=O)O [EDTA, ethylenediaminetetraacetic acid]
  log of the equilibrium constant (log K) for interaction with Sr²⁺: 8.73
